Source: ChEMBL document CHEMBL4024706 (Eur J Med Chem, 2017)

Experiments:
[1] = target: Protein kinase C delta type (Homo sapiens) (UniProt Q05655); assay: Inhibition of wild-type human partial length PRKCD (Q328 to D676 residues) expressed in bacterial expression system assessed as residual activity at 1 uM by Kinomescan method relative to control
[2] = target: Ribosomal protein S6 kinase alpha-4 (Homo sapiens) (UniProt O75676); assay: Inhibition of wild-type human partial length N-terminal RPS6KA4 kinase domain 1 expressed in bacterial expression system assessed as residual activity at 1 uM by Kinomescan method relative to control
[3] = target: TGF-beta receptor type-2 (Homo sapiens) (UniProt P37173); assay: Inhibition of wild-type human partial length TGFBR2 (I218 to K567 residues) expressed in bacterial expression system assessed as residual activity at 1 uM by Kinomescan method relative to control
[4] = target: Ribosomal protein S6 kinase alpha-4 (Homo sapiens) (UniProt O75676); assay: Inhibition of wild-type human partial length C-terminal RPS6KA4 kinase domain 2 (M375 to T705 residues) expressed in mammalian expression system assessed as residual activity at 1 uM by Kinomescan method relative to control
[5] = target: Casein kinase I isoform alpha-like (Homo sapiens) (UniProt Q8N752); assay: Inhibition of wild-type human full length CSNK1A1L (M1 to N337 residues) expressed in bacterial expression system assessed as residual activity at 1 uM by Kinomescan method relative to control
[6] = target: Platelet-derived growth factor receptor beta (Homo sapiens) (UniProt P09619); assay: Inhibition of wild-type human partial length PDGFRB (V582 to Y1009 residues) expressed in bacterial expression system assessed as residual activity at 1 uM by Kinomescan method relative to control
[7] = target: Tyrosine-protein kinase Fyn (Homo sapiens) (UniProt P06241); assay: Inhibition of wild-type human partial length FYN (T243 to L534 residues) expressed in bacterial expression system assessed as residual activity at 1 uM by Kinomescan method relative to control
[8] = Cmax in Sprague-Dawley rat at 10 mg/kg, po by LC-MS/MS method; type: ADME, organism-based; set-up: dose 10 mg/kg, route oral; conditions: in vivo
[9] = target: Ribosomal protein S6 kinase alpha-6 (Homo sapiens) (UniProt Q9UK32); assay: Inhibition of wild-type human partial length N-terminal RSK4 kinase domain 1 (M1 to E397 residues) expressed in mammalian expression system assessed as residual activity at 1 uM by Kinomescan method relative to control
[10] = target: Cyclin-dependent kinase 19 (Homo sapiens) (UniProt Q9BWU1); assay: Inhibition of wild-type human partial length CDK11 (M1 to N360 residues) expressed in bacterial expression system assessed as residual activity at 1 uM by Kinomescan method relative to control
[11] = target: 5'-AMP-activated protein kinase catalytic subunit alpha-2 (Homo sapiens) (UniProt P54646); assay: Inhibition of wild-type human partial length AMPK alpha2 (M1 to E306 residues) expressed in bacterial expression system assessed as residual activity at 1 uM by Kinomescan method relative to control
[12] = target: Tyrosine-protein kinase Yes (Homo sapiens) (UniProt P07947); assay: Inhibition of wild-type human partial length YES (T257 to L543 residues) expressed in bacterial expression system assessed as residual activity at 1 uM by Kinomescan method relative to control
[13] = target: Serine/threonine-protein kinase BRSK2 (Homo sapiens) (UniProt Q8IWQ3); assay: Inhibition of wild-type human full length BRSK2 (M1 to L674 residues) expressed in bacterial expression system assessed as residual activity at 1 uM by Kinomescan method relative to control
[14] = target: Wee1-like protein kinase (Homo sapiens) (UniProt P30291); assay: Inhibition of wild-type human partial length WEE1 (M291 to K575 residues) expressed in bacterial expression system assessed as residual activity at 1 uM by Kinomescan method relative to control
[15] = target: Serine/threonine-protein kinase Nek3 (Homo sapiens) (UniProt P51956); assay: Inhibition of wild-type human full length NEK3 (M1 to R506 residues) expressed in mammalian expression system assessed as residual activity at 1 uM by Kinomescan method relative to control
[16] = target: MAP/microtubule affinity-regulating kinase 3 (Homo sapiens) (UniProt P27448); assay: Inhibition of wild-type human full length MARK3 (M1 to L729 residues) expressed in bacterial expression system assessed as residual activity at 1 uM by Kinomescan method relative to control
NB-4 = assay: Growth inhibition of human NB4 cells; type: functional; conditions: Homo sapiens, NB-4
[17] = target: Ephrin type-A receptor 6 (Homo sapiens) (UniProt Q9UF33); assay: Inhibition of wild-type human partial length EPHA6 (Y700 to E1046 residues) expressed in bacterial expression system assessed as residual activity at 1 uM by Kinomescan method relative to control
[18] = target: Tyrosine-protein kinase receptor UFO (Homo sapiens) (UniProt P30530); assay: Inhibition of wild-type human partial length AXL (R497 to Y821 residues) expressed in bacterial expression system assessed as residual activity at 1 uM by Kinomescan method relative to control
[19] = test system: Receptor-type tyrosine-protein kinase FLT3 (Homo sapiens), P36888 [K663Q]; assay: Inhibition of human partial length FLT3 K663Q mutant (V592 to Y969 residues) expressed in bacterial expression system assessed as residual activity at 1 uM by Kinomescan method relative to control
OCI-AML-3 = assay: Growth inhibition of human OCI-AML3 cells; type: functional; conditions: Homo sapiens, OCI-AML-3
[20] = test system: Epidermal growth factor receptor (Homo sapiens), P00533 [G719C]; assay: Inhibition of human partial length EGFR G719C mutant (R669 to V1011 residues) expressed in bacterial expression system assessed as residual activity at 1 uM by Kinomescan method relative to control
[21] = target: STE20/SPS1-related proline-alanine-rich protein kinase (Homo sapiens) (UniProt Q9UEW8); assay: Inhibition of wild-type human partial length STK39 (P43 to I357 residues) expressed in mammalian expression system assessed as residual activity at 1 uM by Kinomescan method relative to control
[22] = test system: Phosphatidylinositol 4,5-bisphosphate 3-kinase catalytic subunit alpha isoform (Homo sapiens), P42336 [E545K]; assay: Inhibition of human partial length PIK3CA E545K mutant (R108 to N1068 residues) expressed in mammalian expression system assessed as residual activity at 1 uM by Kinomescan method relative to control
[23] = target: Cyclin-dependent kinase-like 1 (Homo sapiens) (UniProt Q00532); assay: Inhibition of wild-type human full length CDKL1 (M1 to I358 residues) expressed in mammalian expression system assessed as residual activity at 1 uM by Kinomescan method relative to control
[24] = target: Serine/threonine-protein kinase NIM1 (Homo sapiens) (UniProt Q8IY84); assay: Inhibition of wild-type human partial length NIM1 (Q44 to N355 residues) expressed in mammalian expression system assessed as residual activity at 1 uM by Kinomescan method relative to control
[25] = target: Mitogen-activated protein kinase 13 (Homo sapiens) (UniProt O15264); assay: Inhibition of wild-type human full length p38-delta (M1 to L365 residues) expressed in bacterial expression system assessed as residual activity at 1 uM by Kinomescan method relative to control
Mitogen-activated protein kinase 13 (Homo sapiens), sequence (O15264 whole entry, the tested form may be a part): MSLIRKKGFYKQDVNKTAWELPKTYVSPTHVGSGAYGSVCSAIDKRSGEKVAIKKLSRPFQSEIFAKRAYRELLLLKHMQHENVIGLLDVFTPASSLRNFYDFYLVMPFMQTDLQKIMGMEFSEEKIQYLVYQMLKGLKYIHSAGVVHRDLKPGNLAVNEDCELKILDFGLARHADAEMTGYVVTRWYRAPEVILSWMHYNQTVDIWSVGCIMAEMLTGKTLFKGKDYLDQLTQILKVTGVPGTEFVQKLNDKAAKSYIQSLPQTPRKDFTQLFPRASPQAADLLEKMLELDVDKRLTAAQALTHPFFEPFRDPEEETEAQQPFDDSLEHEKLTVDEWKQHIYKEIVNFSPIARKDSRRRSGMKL

Ribosomal protein S6 kinase alpha-4 (Homo sapiens), sequence (O75676 whole entry, looked up, the tested form may be a part, canonical isoform): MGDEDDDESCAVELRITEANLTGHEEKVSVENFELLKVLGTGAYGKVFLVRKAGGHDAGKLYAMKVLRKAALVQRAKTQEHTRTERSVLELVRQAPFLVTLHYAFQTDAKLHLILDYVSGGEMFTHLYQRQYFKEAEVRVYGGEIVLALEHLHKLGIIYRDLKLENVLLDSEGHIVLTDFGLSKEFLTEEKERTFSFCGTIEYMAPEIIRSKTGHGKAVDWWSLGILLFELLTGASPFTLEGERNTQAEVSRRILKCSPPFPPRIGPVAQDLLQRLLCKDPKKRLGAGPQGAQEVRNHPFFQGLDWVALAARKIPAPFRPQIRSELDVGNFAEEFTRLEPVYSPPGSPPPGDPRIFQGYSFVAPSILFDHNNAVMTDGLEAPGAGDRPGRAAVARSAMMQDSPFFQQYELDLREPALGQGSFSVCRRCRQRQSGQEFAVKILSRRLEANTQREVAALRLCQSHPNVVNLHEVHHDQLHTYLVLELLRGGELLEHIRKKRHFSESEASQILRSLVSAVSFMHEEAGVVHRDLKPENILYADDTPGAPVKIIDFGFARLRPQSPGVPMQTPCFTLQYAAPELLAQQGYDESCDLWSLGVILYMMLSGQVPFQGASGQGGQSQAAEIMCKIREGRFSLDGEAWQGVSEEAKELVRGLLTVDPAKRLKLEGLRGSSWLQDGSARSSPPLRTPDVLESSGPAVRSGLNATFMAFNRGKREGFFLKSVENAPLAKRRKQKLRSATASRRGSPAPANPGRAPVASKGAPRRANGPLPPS
TGF-beta receptor type-2 (Homo sapiens), sequence (P37173 whole entry, the tested form may be a part): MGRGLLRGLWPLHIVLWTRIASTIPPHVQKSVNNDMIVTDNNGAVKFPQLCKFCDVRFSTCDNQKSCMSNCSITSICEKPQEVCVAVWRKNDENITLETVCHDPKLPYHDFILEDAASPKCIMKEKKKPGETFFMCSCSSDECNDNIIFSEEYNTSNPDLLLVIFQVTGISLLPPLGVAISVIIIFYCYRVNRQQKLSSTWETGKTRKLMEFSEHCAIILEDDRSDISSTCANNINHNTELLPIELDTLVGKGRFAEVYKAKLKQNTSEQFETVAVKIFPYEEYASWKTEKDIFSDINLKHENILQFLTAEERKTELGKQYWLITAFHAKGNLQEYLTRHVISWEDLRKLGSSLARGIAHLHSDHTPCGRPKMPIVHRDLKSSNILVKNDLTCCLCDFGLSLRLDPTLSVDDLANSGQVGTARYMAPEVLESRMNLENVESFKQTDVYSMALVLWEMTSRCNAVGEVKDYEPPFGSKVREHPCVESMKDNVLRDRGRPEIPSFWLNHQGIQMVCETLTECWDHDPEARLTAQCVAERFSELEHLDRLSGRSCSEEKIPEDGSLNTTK
Serine/threonine-protein kinase Nek3 (Homo sapiens), sequence (P51956 whole entry, the tested form may be a part): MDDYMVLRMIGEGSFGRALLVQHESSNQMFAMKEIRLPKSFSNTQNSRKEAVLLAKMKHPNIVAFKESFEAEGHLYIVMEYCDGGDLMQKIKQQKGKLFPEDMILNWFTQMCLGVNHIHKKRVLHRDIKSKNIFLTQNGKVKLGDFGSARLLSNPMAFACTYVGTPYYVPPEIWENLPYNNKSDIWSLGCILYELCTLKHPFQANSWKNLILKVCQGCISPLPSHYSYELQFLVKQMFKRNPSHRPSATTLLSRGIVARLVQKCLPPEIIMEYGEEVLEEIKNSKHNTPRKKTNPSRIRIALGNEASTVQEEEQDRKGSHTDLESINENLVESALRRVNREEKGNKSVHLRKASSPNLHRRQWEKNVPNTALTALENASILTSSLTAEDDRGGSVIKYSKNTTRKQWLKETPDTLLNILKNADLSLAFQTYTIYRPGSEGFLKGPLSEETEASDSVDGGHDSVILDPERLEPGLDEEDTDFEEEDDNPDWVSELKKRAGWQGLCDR
Cyclin-dependent kinase-like 1 (Homo sapiens), sequence (Q00532 whole entry, the tested form may be a part): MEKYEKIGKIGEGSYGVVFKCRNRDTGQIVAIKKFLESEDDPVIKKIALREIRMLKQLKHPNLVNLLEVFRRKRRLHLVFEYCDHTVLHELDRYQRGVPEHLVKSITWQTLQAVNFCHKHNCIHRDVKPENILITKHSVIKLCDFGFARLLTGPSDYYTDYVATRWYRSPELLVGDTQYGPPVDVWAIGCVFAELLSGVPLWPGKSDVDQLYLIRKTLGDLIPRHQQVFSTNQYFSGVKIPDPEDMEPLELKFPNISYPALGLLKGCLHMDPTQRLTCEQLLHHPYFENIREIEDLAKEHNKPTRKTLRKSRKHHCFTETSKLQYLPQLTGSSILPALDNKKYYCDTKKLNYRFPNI
Serine/threonine-protein kinase BRSK2 (Homo sapiens), sequence (Q8IWQ3 whole entry, the tested form may be a part): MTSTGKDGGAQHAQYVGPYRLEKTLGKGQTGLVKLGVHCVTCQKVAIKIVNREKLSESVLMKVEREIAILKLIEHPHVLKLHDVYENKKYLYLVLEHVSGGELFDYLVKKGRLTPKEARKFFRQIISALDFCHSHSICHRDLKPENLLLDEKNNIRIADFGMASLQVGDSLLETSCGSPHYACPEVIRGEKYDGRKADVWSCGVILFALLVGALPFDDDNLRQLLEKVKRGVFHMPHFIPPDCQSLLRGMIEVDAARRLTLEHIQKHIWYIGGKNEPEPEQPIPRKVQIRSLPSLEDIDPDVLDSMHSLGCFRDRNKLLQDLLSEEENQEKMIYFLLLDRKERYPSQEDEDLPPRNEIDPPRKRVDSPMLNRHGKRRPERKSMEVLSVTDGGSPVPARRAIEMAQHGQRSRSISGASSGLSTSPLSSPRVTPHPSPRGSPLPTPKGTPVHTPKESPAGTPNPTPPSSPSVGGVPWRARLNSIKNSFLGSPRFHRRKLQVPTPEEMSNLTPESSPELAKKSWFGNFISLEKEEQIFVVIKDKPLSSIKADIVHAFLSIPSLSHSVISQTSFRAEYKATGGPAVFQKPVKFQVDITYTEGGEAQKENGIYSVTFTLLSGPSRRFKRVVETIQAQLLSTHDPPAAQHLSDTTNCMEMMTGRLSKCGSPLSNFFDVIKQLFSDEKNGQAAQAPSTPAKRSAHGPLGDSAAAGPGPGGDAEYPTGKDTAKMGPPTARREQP
Casein kinase I isoform alpha-like (Homo sapiens), sequence (Q8N752 whole entry, the tested form may be a part, canonical isoform): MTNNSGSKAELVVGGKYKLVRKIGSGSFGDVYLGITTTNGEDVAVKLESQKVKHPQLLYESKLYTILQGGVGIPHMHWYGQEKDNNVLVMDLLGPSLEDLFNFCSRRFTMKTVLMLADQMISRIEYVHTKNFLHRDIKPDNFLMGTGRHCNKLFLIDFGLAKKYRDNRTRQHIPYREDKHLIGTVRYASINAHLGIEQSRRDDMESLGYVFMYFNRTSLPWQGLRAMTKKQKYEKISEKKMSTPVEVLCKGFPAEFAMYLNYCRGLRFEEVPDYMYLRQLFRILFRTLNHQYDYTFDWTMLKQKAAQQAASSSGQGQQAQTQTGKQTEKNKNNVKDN
MAP/microtubule affinity-regulating kinase 3 (Homo sapiens), sequence (P27448 whole entry, looked up, the tested form may be a part): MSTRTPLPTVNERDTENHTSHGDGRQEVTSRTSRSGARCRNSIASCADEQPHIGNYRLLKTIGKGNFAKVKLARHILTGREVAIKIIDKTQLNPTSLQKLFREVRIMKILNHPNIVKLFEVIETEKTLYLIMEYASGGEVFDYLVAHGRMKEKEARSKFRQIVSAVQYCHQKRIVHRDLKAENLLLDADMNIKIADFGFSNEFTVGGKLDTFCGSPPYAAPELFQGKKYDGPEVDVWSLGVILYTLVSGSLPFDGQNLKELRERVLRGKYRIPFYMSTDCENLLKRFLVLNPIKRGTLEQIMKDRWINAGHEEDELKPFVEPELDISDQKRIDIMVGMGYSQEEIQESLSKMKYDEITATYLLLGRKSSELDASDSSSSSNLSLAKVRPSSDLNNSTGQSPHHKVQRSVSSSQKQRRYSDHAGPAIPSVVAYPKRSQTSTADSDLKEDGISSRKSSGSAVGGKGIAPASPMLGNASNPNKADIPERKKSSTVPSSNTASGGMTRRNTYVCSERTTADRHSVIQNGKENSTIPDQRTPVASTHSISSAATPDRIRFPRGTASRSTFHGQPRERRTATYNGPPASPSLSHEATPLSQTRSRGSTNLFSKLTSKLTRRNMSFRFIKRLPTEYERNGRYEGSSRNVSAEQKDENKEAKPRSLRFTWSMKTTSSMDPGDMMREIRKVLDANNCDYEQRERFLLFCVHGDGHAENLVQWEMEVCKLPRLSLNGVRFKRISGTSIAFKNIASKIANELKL
Serine/threonine-protein kinase NIM1 (Homo sapiens), sequence (Q8IY84 whole entry, the tested form may be a part): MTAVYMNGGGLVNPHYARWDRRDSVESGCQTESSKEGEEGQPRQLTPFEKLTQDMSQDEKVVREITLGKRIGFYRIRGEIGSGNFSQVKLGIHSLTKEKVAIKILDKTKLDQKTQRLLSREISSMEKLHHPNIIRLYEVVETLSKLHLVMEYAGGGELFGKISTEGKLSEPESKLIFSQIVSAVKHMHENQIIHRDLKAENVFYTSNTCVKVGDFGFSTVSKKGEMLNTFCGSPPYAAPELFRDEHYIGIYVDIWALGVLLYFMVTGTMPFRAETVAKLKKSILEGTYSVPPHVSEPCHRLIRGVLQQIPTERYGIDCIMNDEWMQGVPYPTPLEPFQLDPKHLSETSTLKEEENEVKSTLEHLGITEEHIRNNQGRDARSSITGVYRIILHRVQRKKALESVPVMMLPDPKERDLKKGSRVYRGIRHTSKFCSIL

## C=CC(=O)Nc1cc(Nc2cc(-c3cccc(NC(=O)c4ccc(C(C)(C)C)cc4)c3C)cn(C)c2=O)ccc1C(=O)N1CCOCC1
[1]
  Activity: 96%
[2]
  Activity: 97%
[3]
  Activity: 90%
[4]
  Activity: 100%
[5]
  Activity: 100%
[6]
  Activity: 92%
[7]
  Activity: 73%
[8]
  Cmax: 32.8 ng/mL
[9]
  Activity: 90%
[10]
  Activity: 100%
[11]
  Activity: 92%
[12]
  Activity: 93%
[13]
  Activity: 92%
[14]
  Activity: 99%
[15]
  Activity: 97%
[16]
  Activity: 100%
NB-4
  GI50: 6.6 µM
[17]
  Activity: 93%
[18]
  Activity: 86%
[19]
  Activity: 94%
OCI-AML-3
  GI50: 3.8 µM
[20]
  Activity: 100%
[21]
  Activity: 70%
[22]
  Activity: 100%
[23]
  Activity: 100%
[24]
  Activity: 100%
[25]
  Activity: 84%
